The Cmax is the highest concentration seen after dosing. One may read the AUC(0-t) as the area under the concentration-time curve up to a stated or last time point. As a reminder, the half-life is the time needed for the level to fall by half in the phase considered. In general, Tmax refers to the time at which the peak concentration occurs.

The nature of this data set: Pharmacokinetic study in rats: plasma 2C-B after IV/PO 2C-B or PO 2C-B prodrugs. The following applies: for Tlast / AUC0-inf / AUC0-last / Cmax / T1/2 / AUC(0-t) / half-life / Tmax: analyte 2C-B in plasma; for AUC(0-t): AUC0-last.
Setting [1] is: 2C-B dosed IV 1 mg/kg, male SD rats, individual animals, 1 mg/kg.
The mark [2] stands for this setting: 2C-B dosed oral 5 mg/kg, male SD rats, individual animals, 5 mg/kg.
Where [3] appears, read: 2C-B dosed oral 10 mg/kg, male SD rats, individual animals, 10 mg/kg.
[4] abbreviates: male, Sprague-Dawley, rat, plasma, po, 5 mg/kg, 2C-B dosed oral 5 mg/kg, male SD rats, mean.

Several values for one entry are separate records, joined by “and”; a condition that tells them apart may be missing. Identical values can stand only once.

For `COc1cc(CCN)c(OC)cc1Br` [Example 2C-B, 4-bromo-2,5-dimethoxyphenethylamine], the Tlast is 2 h (2C-B dosed IV 1 mg/kg, male SD rats, Mean* row (median calculated for Tlast)); 2 h (2C-B dosed IV 1 mg/kg, male SD rats, individual animals); 7.00 h and 24.0 h (2×) under setting [2]; 18.3 h (2C-B dosed oral 5 mg/kg, male SD rats, mean); 7.0 h (2C-B dosed oral 10 mg/kg, male SD rats, Mean* row (median calculated for Tlast)); 2 h and 7 h (2×) under setting [3]. Moreover, the AUC0-inf runs as follows: under setting [1], 72.0 ng·h/mL and 57.8 ng·h/mL; under setting [2], 92.0 ng·h/mL and 115 ng·h/mL and 193 ng·h/mL; under setting [3], 66.8 ng·h/mL and 26.1 ng·h/mL; (male, Sprague-Dawley, rat, plasma, iv, 1 mg/kg, AUC0-inf, 2C-B dosed IV 1 mg/kg, male SD rats, individual animals) 68.6 ng·h/mL; (male, Sprague-Dawley, rat, plasma, iv, 1 mg/kg, AUC0-inf, 2C-B dosed IV 1 mg/kg, male SD rats, mean of 3 animals) 66.1 ng·h/mL; (male, Sprague-Dawley, rat, plasma, po, 5 mg/kg, AUC0-inf, 2C-B dosed oral 5 mg/kg, male SD rats, mean) 133 ng·h/mL. Besides, under “male, Sprague-Dawley, rat, plasma, po, 10 mg/kg, AUC0-inf, 2C-B dosed oral 10 mg/kg, male SD rats, mean”, the AUC0-inf was determined as 46.5 ng·h/mL. Further, the AUC0-last is 71.0 ng·h/mL and 56.8 ng·h/mL under setting [1]; 69.0 ng·h/mL and 103 ng·h/mL and 159 ng·h/mL under setting [2]; 40.9 ng·h/mL and 64.3 ng·h/mL and 23.8 ng·h/mL under setting [3]. In addition, the peak concentration (Cmax) was 85.0 ng/mL and 68.8 ng/mL under setting [1]; 29.5 ng/mL and 53.5 ng/mL under setting [2]; 29.4 ng/mL and 37.9 ng/mL and 11.3 ng/mL under setting [3]; 72 ng/mL (male, Sprague-Dawley, rat, plasma, iv, 1 mg/kg, Cmax, 2C-B dosed IV 1 mg/kg, male SD rats, individual animals); 75.3 ng/mL (male, Sprague-Dawley, rat, plasma, iv, 1 mg/kg, Cmax, 2C-B dosed IV 1 mg/kg, male SD rats, mean of 3 animals); 30.1 ng/mL (male, Sprague-Dawley, rat, plasma, po, 5 mg/kg, Cmax, 2C-B dosed oral 5 mg/kg, male SD rats, individual animals). For the same molecule, the Cmax was found to be 37.7 ng/mL (male, Sprague-Dawley, rat, plasma, po, 5 mg/kg, Cmax, 2C-B dosed oral 5 mg/kg, male SD rats, mean) and 26.2 ng/mL (male, Sprague-Dawley, rat, plasma, po, 10 mg/kg, Cmax, 2C-B dosed oral 10 mg/kg, male SD rats, mean). The T1/2 reads like this: under setting [1], 20.3 min and 22.2 min; under setting [2], 251 min and 454 min and 732 min; under setting [3], 134 min. Further, the exposure AUC(0-t) runs as follows: (male, Sprague-Dawley, rat, plasma, iv, 1 mg/kg, 2C-B dosed IV 1 mg/kg, male SD rats, individual animals) 65.6 ng·h/mL; (male, Sprague-Dawley, rat, plasma, iv, 1 mg/kg, 2C-B dosed IV 1 mg/kg, male SD rats, mean of 3 animals) 64.5 ng·h/mL; under setting [4], 110 ng·h/mL; (male, Sprague-Dawley, rat, plasma, po, 10 mg/kg, 2C-B dosed oral 10 mg/kg, male SD rats, mean) 43 ng·h/mL. In addition, the half-life (male, Sprague-Dawley, rat, plasma, iv, 1 mg/kg, T1/2, 2C-B dosed IV 1 mg/kg, male SD rats, individual animals) was 27.3 min; the half-life (male, Sprague-Dawley, rat, plasma, iv, 1 mg/kg, T1/2, 2C-B dosed IV 1 mg/kg, male SD rats, mean of 3 animals) is 23.3 min; the half-life (male, Sprague-Dawley, rat, plasma, po, 5 mg/kg, T1/2, 2C-B dosed oral 5 mg/kg, male SD rats, mean) was 479 min; the half-life (male, Sprague-Dawley, rat, plasma, po, 10 mg/kg, T1/2, 2C-B dosed oral 10 mg/kg, male SD rats, individual animals) was 99 min; the half-life (male, Sprague-Dawley, rat, plasma, po, 10 mg/kg, T1/2, 2C-B dosed oral 10 mg/kg, male SD rats, mean) is 116 min. The Tmax reads like this: (male, Sprague-Dawley, rat, plasma, po, 5 mg/kg, 2C-B dosed oral 5 mg/kg, male SD rats, individual animals) 30 min; under setting [4], 30 min; (male, Sprague-Dawley, rat, plasma, po, 10 mg/kg, 2C-B dosed oral 10 mg/kg, male SD rats, Mean* row (median calculated for Tmax)) 30 min; (male, Sprague-Dawley, rat, plasma, po, 10 mg/kg, 2C-B dosed oral 10 mg/kg, male SD rats, individual animals) 60 min.
With `COc1cc(CCNC(C)=O)c(OC)cc1Br` [Example 4, N-(4-bromo-2,5-dimethoxyphenethyl)acetamide], the “Plasma Concentrations of metabolite 2C-B Following Oral Dosing” value (from here on “Plasma Concentrations”) is listed as “BLQ (BLQ: Below Lower Limit of Quanification (0.5 ng/mL))” (prodrug oral 10 mg/kg, male SD rats, time 0.500 h, individual animals); “BLQ (BLQ: Below Lower Limit of Quanification (0.5 ng/mL))” (prodrug oral 10 mg/kg, male SD rats, time 0.500 h, mean); “BLQ (BLQ: Below Lower Limit of Quanification (0.5 ng/mL))” (prodrug oral 10 mg/kg, male SD rats, time 1.00 h, individual animals); “BLQ (BLQ: Below Lower Limit of Quanification (0.5 ng/mL))” (prodrug oral 10 mg/kg, male SD rats, time 1.00 h, mean); “BLQ (BLQ: Below Lower Limit of Quanification (0.5 ng/mL))” (prodrug oral 10 mg/kg, male SD rats, time 2.00 h, individual animals); “BLQ (BLQ: Below Lower Limit of Quanification (0.5 ng/mL))” (prodrug oral 10 mg/kg, male SD rats, time 2.00 h, mean). The “Plasma Concentrations” value runs as follows: (prodrug oral 10 mg/kg, male SD rats, time 4.00 h, individual animals) “BLQ (BLQ: Below Lower Limit of Quanification (0.5 ng/mL))”; (prodrug oral 10 mg/kg, male SD rats, time 4.00 h, mean) “BLQ (BLQ: Below Lower Limit of Quanification (0.5 ng/mL))”; (prodrug oral 10 mg/kg, male SD rats, time 7.00 h, individual animals) “BLQ (BLQ: Below Lower Limit of Quanification (0.5 ng/mL))”; (prodrug oral 10 mg/kg, male SD rats, time 7.00 h, mean) “BLQ (BLQ: Below Lower Limit of Quanification (0.5 ng/mL))”; (prodrug oral 10 mg/kg, male SD rats, time 24.0 h, individual animals) “BLQ (BLQ: Below Lower Limit of Quanification (0.5 ng/mL))”; (prodrug oral 10 mg/kg, male SD rats, time 24.0 h, mean) “BLQ (BLQ: Below Lower Limit of Quanification (0.5 ng/mL))”.
`COc1cc(CCNC(=O)C(F)(F)F)c(OC)cc1Br` [Example 5, N-(4-bromo-2,5-dimethoxyphenethyl)-2,2,2-trifluoroacetamide]: the “Plasma Concentrations” value by setting is: (oral dosing of 2C-B prodrug, rat, time 0.500 h, individual animal) “BLQ (BLQ: Below Lower Limit of Quanification (0.5 ng/mL))”; (oral dosing of 2C-B prodrug, rat, time 0.500 h, mean) “BLQ (BLQ: Below Lower Limit of Quanification (0.5 ng/mL))”; (oral dosing of 2C-B prodrug, rat, time 1.00 h, individual animal) “BLQ (BLQ: Below Lower Limit of Quanification (0.5 ng/mL))”; (oral dosing of 2C-B prodrug, rat, time 1.00 h, mean) “BLQ (BLQ: Below Lower Limit of Quanification (0.5 ng/mL))”; (oral dosing of 2C-B prodrug, rat, time 2.00 h, individual animal) “BLQ (BLQ: Below Lower Limit of Quanification (0.5 ng/mL))”; (oral dosing of 2C-B prodrug, rat, time 2.00 h, mean) “BLQ (BLQ: Below Lower Limit of Quanification (0.5 ng/mL))”. In addition, the “Plasma Concentrations” value (oral dosing of 2C-B prodrug, rat, time 4.00 h, individual animal) was “BLQ (BLQ: Below Lower Limit of Quanification (0.5 ng/mL))”; the “Plasma Concentrations” value (oral dosing of 2C-B prodrug, rat, time 4.00 h, mean) is “BLQ (BLQ: Below Lower Limit of Quanification (0.5 ng/mL))”; the “Plasma Concentrations” value (oral dosing of 2C-B prodrug, rat, time 7.00 h, individual animal) is “BLQ (BLQ: Below Lower Limit of Quanification (0.5 ng/mL))”; the “Plasma Concentrations” value (oral dosing of 2C-B prodrug, rat, time 7.00 h, mean) is listed as “BLQ (BLQ: Below Lower Limit of Quanification (0.5 ng/mL))”; the “Plasma Concentrations” value (oral dosing of 2C-B prodrug, rat, time 24.0 h, individual animal) is “BLQ (BLQ: Below Lower Limit of Quanification (0.5 ng/mL))”; the “Plasma Concentrations” value (oral dosing of 2C-B prodrug, rat, time 24.0 h, mean) is listed as “BLQ (BLQ: Below Lower Limit of Quanification (0.5 ng/mL))”.

(Values after patent publication US20250049748A1, “ANALOGS OF 4-BROMO-2,5-DIMETHOXYPHENETHYLAMINE” (Terran Biosciences Inc., priority 2021, published 2025).)
